# Results: patent publication US11352350B2, “IRAK degraders and uses thereof” (Kymera Therapeutics, Inc., priority 2018, dated 2022)
# Key:
# IRAK4 [1] = molecular target: T1, IRAK4 (Homo sapiens (Human), UniProt Q9NWZ3); experiment: IRAK4 MSD degradation in OCI-LY10; assay type: cell-based; conditions: OCI-LY10, 4 hrs
# Summary of the method: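 Remaining IRAK4 quantified by electrochemiluminescent MSD sandwich assay with two anti-IRAK4 antibodies. Compounds were dosed as 8 concentrations in 1:3 steps from a 1 to 10 μM final top on OCI-LY10 cells, incubated 4 to 24 h at 37° C. under 5% CO2. DC50 fitted with a three-parameter logistic curve.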
# IRAK4 [2] = molecular target: T1, IRAK4; experiment: hPBMC IRAK4 degradation flow assay; assay type: cell-based; conditions: hPBMC monocyte
# Summary of the method: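 Thawed human PBMCs treated with 10-point, 5-fold compound dilutions (0.1% DMSO) at 37° C. for 20 hours or 4 hours. IRAK4 measured by flow MFI in CD14+ monocytes and CD14− lymphocytes, normalized to DMSO and 10 μM 20-hour control; DC50 and max degradation from 4-parameter logistic fit.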
# OCI-LY10 = experiment: CTG Cell Viability Assay - OCI-LY10; assay type: cell-based, human; conditions: Homo sapiens, OCI-Ly10, 96 h, OCI-LY10, 4 days; read-out: CTG Cell Viability Assay - OCI-LY10: Average external-IC50
# Summary of the method: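 Viability read by CellTiter-Glo luminescence after 4 days at 37° C under 5% CO2 with compound (top 10 μM final, 1:3 steps, 9 doses, DMSO 0.2%). Three-parameter logistic fit gave IC50.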
# IL-6 = IL-6 secretion in hPBMC using R848 stimulation; assay type: cell-based, human; conditions: Homo sapiens, 20 h, hPBMC, R848 as stim, t = 20 h
# [3] = read-out: IRAK4 MSD degradation in OCI-LY10 at 4 hrs: DC50
# [4] = 20 hrs, read-out: IRAK4 degradation in hPBMC monocyte: DC50
# [5] = MSD, read-out: IRAK4 MSD degradation in OCI-LY10 at 4 hrs: Average external-Abs DC50
# [6] = 20 hr, flow assay, read-out: IRAK4 degradation in hPBMC monocyte at 20 hr: Average external Abs DC50
# T1 sequence (Q9NWZ3 whole entry): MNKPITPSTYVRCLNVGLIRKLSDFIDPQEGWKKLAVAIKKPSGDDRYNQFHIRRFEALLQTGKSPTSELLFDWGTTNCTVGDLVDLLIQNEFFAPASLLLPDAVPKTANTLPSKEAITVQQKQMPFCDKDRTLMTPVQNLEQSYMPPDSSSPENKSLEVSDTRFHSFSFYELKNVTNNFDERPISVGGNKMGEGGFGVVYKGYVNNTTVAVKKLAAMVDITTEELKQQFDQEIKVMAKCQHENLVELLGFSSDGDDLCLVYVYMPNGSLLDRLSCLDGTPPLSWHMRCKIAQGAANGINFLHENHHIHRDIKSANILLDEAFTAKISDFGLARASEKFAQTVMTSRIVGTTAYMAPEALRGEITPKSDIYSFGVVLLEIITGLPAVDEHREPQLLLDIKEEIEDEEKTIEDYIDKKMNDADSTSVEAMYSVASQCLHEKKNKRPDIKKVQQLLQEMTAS
smiles,measurement,setting,value
C[C@H](C#Cc1cccc2c1N(C)C(=O)C2C1CCC(=O)NC1=O)OC1CCN(C[C@H]2CC[C@H](n3cc(NC(=O)c4cnn5ccc(N6C[C@H]7C[C@@H]6CO7)nc45)c(C(F)F)n3)CC2)CC1 (stereo partly drawn) [I-555],DC50,IRAK4 [1]; [3],< 10 nM
same,DC50,IRAK4 [2]; [4],< 10 nM
same,IC50,OCI-LY10,> 1000 nM
same,IC50,IL-6,1 to 10 nM
Cc1ccc(-c2nn([C@H]3CC[C@H](CN4CCC5(CC4)CN(CCCc4cccc6c4n(C)c(=O)n6C4CCC(=O)NC4=O)C5)CC3)cc2NC(=O)c2cnn3cccnc23)nc1 (stereo partly drawn) [I-509],DC50,IRAK4 [1]; [3],10 to 100 nM
same,DC50,IRAK4 [2]; [4],10 to 100 nM
same,IC50,OCI-LY10,> 1000 nM
same,IC50,IL-6,1 to 10 nM
Cn1c(=O)n(C2CCC(=O)NC2=O)c2cccc(CCC(=O)N3CCC4(CCN(C[C@H]5CC[C@H](n6cc(NC(=O)c7cnn8ccc(N9C[C@H]%10C[C@@H]9CO%10)nc78)c(C(F)F)n6)CC5)CC4)CC3)c21 (stereo partly drawn) [I-467],DC50,IRAK4 [1]; [3],< 10 nM
same,DC50,IRAK4 [2]; [4],< 10 nM
same,IC50,IL-6,< 1 nM
Cn1c(=O)n(C2CCC(=O)NC2=O)c2cccc(CCCC3CCN(C[C@H]4CC[C@H](n5cc(NC(=O)c6cnn7ccc(N8CCOC(C)(C)C8)nc67)c(C(F)F)n5)CC4)CC3)c21 (stereo partly drawn) [I-525],DC50,IRAK4 [1]; [3],10 to 100 nM
same,DC50,IRAK4 [2]; [4],< 10 nM
same,IC50,OCI-LY10,> 1000 nM
same,IC50,IL-6,< 1 nM
"Cn1c(=O)n(C2CCC(=O)NC2=O)c2cccc(C#CCCCOCc3ccc(-n4cc(NC(=O)c5cnn6ccc(N7C[C@H]8C[C@@H]7CO8)nc56)c(C(F)F)n4)cc3)c21 (stereo partly drawn) [I-498, N-[3-(difluoromethyl)-1-[4-[5-[1-(2,6-dioxo-3-piperidyl)-3-methyl-2-oxo-benzimidazol-4-yl]pent-4-ynoxymethyl]phenyl]pyrazol-4-yl]-5-[(1R,4R)-2-oxa-5-azabicyclo [2.2.1]heptan-5-yl] pyrazolo[1,5-a]pyrimidine-3-carboxamide]",DC50,IRAK4 [1]; [3],100 to 1000 nM
same,DC50,IRAK4 [2]; [4],100 to 1000 nM
same,IC50,OCI-LY10,> 1000 nM
same,IC50,IL-6,10 to 100 nM
Cn1c(=O)n(C2CCC(=O)NC2=O)c2cccc(CCOC3CC4(CCN(C[C@H]5CC[C@H](n6cc(NC(=O)c7cnn8ccc(N9C[C@H]%10C[C@@H]9CO%10)nc78)c(C(F)F)n6)CC5)CC4)C3)c21 (stereo partly drawn) [I-469],DC50,IRAK4 [1]; [3],< 10 nM
same,DC50,IRAK4 [2]; [4],< 10 nM
same,IC50,IL-6,< 1 nM
"CN(CC(CCCOCCCc1cccc2c1n(C)c(=O)n2C1CCC(=O)NC1=O)C(=O)O)C[C@H]1CC[C@H](n2cc(NC(=O)c3coc(-c4ccnc(NCC5CC5)c4)n3)c(C(F)F)n2)CC1 (stereo partly drawn) [I-396, 2-[[[4-[4-[[2-[2-(Cyclopropylmethylamino)-4-pyridyl]oxazole-4-carbonyl]amino]-3-(difluoromethyl)pyrazol-1-yl]cyclohexyl]methyl-methyl-amino]methyl]-5-[3-[1-(2,6-dioxo-3-piperidyl)-3-methyl-2-oxo-benzimidazol-4-yl]propoxy]pentanoic acid]",DC50,IRAK4 [1]; [5],10 to 100 nM
same,DC50,IRAK4 [2]; [6],10 to 100 nM
same,IC50,OCI-LY10,50 to 100 nM
same,IC50,IL-6,1 to 10 nM
Cn1c(=O)n(C2CCC(=O)NC2=O)c2cccc(CN3CC4(CCN(Cc5ccc(-n6cc(NC(=O)c7cnn8ccc(N9C[C@H]%10C[C@@H]9CO%10)nc78)c(C(F)F)n6)cc5)CC4)C3)c21 (stereo partly drawn) [I-464],DC50,IRAK4 [1]; [3],10 to 100 nM
same,DC50,IRAK4 [2]; [4],10 to 100 nM
same,IC50,IL-6,1 to 10 nM
Cn1c(=O)n(C2CCC(=O)NC2=O)c2cccc(CC[C@@H]3CN(C[C@H]4CC[C@H](C5N=C(NC(=O)c6cnn7ccc(N8CCCOCC8)nc67)C(C(F)F)=N5)CC4)CCO3)c21 (stereo partly drawn) [I-514],DC50,IRAK4 [1]; [3],< 10 nM
same,DC50,IRAK4 [2]; [4],< 10 nM
same,IC50,OCI-LY10,> 1000 nM
same,IC50,IL-6,< 1 nM
Cn1c(=O)n(C2CCC(=O)NC2=O)c2cccc(CCC3CCN(c4ccc(CN5CCC(n6cc(NC(=O)c7cnn8ccc(N9C[C@H]%10C[C@@H]9CO%10)nc78)c(C(F)F)n6)CC5)cc4)CC3)c21 (stereo partly drawn) [I-517],DC50,IRAK4 [1]; [3],10 to 100 nM
same,DC50,IRAK4 [2]; [4],< 10 nM
same,IC50,OCI-LY10,> 1000 nM
same,IC50,IL-6,1 to 10 nM
Cn1c(=O)n(C2CCC(=O)NC2=O)c2cccc(CN3C[C@H]4CC[C@@H](C3)N4CC[C@H]3CC[C@H](n4cc(NC(=O)c5cnn6ccc(N7C[C@H]8C[C@@H]7CO8)nc56)c(C(F)F)n4)CC3)c21 (stereo partly drawn) [I-511],DC50,IRAK4 [1]; [3],10 to 100 nM
same,DC50,IRAK4 [2]; [4],< 10 nM
same,IC50,OCI-LY10,> 1000 nM
same,IC50,IL-6,1 to 10 nM
Cn1c(=O)n(C2CCC(=O)NC2=O)c2cccc(CCCN3CCOC4(CCN(C(=O)c5ccc(-n6cc(NC(=O)c7cnn8ccc(N9C[C@H]%10C[C@@H]9CO%10)nc78)c(C(F)F)n6)cc5)CC4)C3)c21 (stereo partly drawn) [I-424],DC50,IRAK4 [1]; [5],< 10 nM
same,DC50,IRAK4 [2]; [6],< 10 nM
same,IC50,OCI-LY10,> 1000 nM
same,IC50,IL-6,1 to 10 nM
C[C@@H]1CN(c2ccn3ncc(C(=O)NC4=NC([C@H]5CC[C@H](CN6CCC(CC#Cc7cccc8c7n(C)c(=O)n8C7CCC(=O)NC7=O)CC6)CC5)N=C4C(F)F)c3c2)C[C@H](C)O1 (stereo partly drawn) [I-530],DC50,IRAK4 [1]; [3],10 to 100 nM
same,DC50,IRAK4 [2]; [4],< 10 nM
same,IC50,IL-6,< 1 nM
C[C@H]1CN(c2ccn3ncc(C(=O)NC4=NC([C@H]5CC[C@H](CN6CCC(CC#Cc7cccc8c7n(C)c(=O)n8C7CCC(=O)NC7=O)CC6)CC5)N=C4C(F)F)c3n2)C[C@H](C)O1 (stereo partly drawn) [I-549],DC50,IRAK4 [1]; [3],10 to 100 nM
same,DC50,IRAK4 [2]; [4],< 10 nM
same,IC50,IL-6,1 to 10 nM
C[C@@H]1CN(c2ccn3ncc(C(=O)Nc4cn([C@H]5CC[C@H](CN6CCC(CCCc7cccc8c7n(C)c(=O)n8C7CCC(=O)NC7=O)CC6)CC5)nc4C(F)F)c3n2)C[C@H](C)O1 (stereo partly drawn) [I-540],DC50,IRAK4 [1]; [3],10 to 100 nM
same,DC50,IRAK4 [2]; [4],< 10 nM
same,IC50,IL-6,1 to 10 nM
Cn1c(=O)n(C2CCC(=O)NC2=O)c2cccc(CCCCN3CCN(C[C@H]4CC[C@H](n5cc(NC(=O)c6cnn7ccc(N8C[C@H]9C[C@@H]8CO9)nc67)c(C(F)F)n5)CC4)CC3)c21 (stereo partly drawn) [I-471],DC50,IRAK4 [1]; [3],< 10 nM
same,DC50,IRAK4 [2]; [4],< 10 nM
same,IC50,IL-6,< 1 nM
C[C@@H]1CN(c2ccn3ncc(C(=O)NC4=NC([C@H]5CC[C@H](CN6CCC(CC#Cc7cccc8c7n(C)c(=O)n8C7CCC(=O)NC7=O)CC6)CC5)N=C4C(F)F)c3c2)C[C@@H](C)O1 (stereo partly drawn) [I-528],DC50,IRAK4 [1]; [3],10 to 100 nM
same,DC50,IRAK4 [2]; [4],< 10 nM
same,IC50,IL-6,1 to 10 nM
Cn1c(=O)n(C2CCC(=O)NC2=O)c2cccc(CN3CCN(CC[C@H]4CC[C@H](n5cc(NC(=O)c6cnn7ccc(N8C[C@H]9C[C@@H]8CO9)nc67)c(C(F)F)n5)CC4)CC3)c21 (stereo partly drawn) [I-510],DC50,IRAK4 [2]; [4],< 10 nM
same,IC50,OCI-LY10,> 1000 nM
same,IC50,IL-6,1 to 10 nM
C[C@H]1CN(c2ccn3ncc(C(=O)NC4=NC([C@H]5CC[C@H](CN6CCC(CCCc7cccc8c7n(C)c(=O)n8C7CCC(=O)NC7=O)CC6)CC5)N=C4C(F)F)c3n2)C[C@H](C)O1 (stereo partly drawn) [I-543],DC50,IRAK4 [1]; [3],10 to 100 nM
same,DC50,IRAK4 [2]; [4],< 10 nM
same,IC50,IL-6,< 1 nM
Cn1c(=O)n(C2CCC(=O)NC2=O)c2cccc(C#CCOC3CCN(C[C@H]4CC[C@H](n5cc(NC(=O)c6cnn7ccc(N8C[C@H]9CC[C@@H](C8)O9)nc67)c(C(F)F)n5)CC4)CC3)c21 (stereo partly drawn) [I-547],DC50,IRAK4 [1]; [3],< 10 nM
same,DC50,IRAK4 [2]; [4],< 10 nM
same,IC50,IL-6,1 to 10 nM
Cn1c(=O)n(C2CCC(=O)NC2=O)c2cccc(CC3CC4(CCN(Cc5ccc(-n6cc(NC(=O)c7cnn8ccc(N9C[C@H]%10C[C@@H]9CO%10)nc78)c(C(F)F)n6)cc5)CC4)C3)c21 (stereo partly drawn) [I-466],DC50,IRAK4 [1]; [3],100 to 1000 nM
same,DC50,IRAK4 [2]; [4],< 10 nM
same,IC50,IL-6,1 to 10 nM
C[C@@H]1CN(c2ccn3ncc(C(=O)NC4=NC([C@H]5CC[C@H](CN6CCC(CCCc7cccc8c7n(C)c(=O)n8C7CCC(=O)NC7=O)CC6)CC5)N=C4C(F)F)c3n2)C[C@@H](C)O1 (stereo partly drawn) [I-537],DC50,IRAK4 [1]; [3],< 10 nM
same,DC50,IRAK4 [2]; [4],< 10 nM
same,IC50,IL-6,1 to 10 nM
Cn1c(=O)n(C2CCC(=O)NC2=O)c2cccc(CCCCN3CCN(C(=O)[C@H]4CC[C@H](n5cc(NC(=O)c6cnn7ccc(N8C[C@H]9C[C@@H]8CO9)nc67)c(C(F)F)n5)CC4)CC3)c21 (stereo partly drawn) [I-472],DC50,IRAK4 [1]; [3],< 10 nM
same,DC50,IRAK4 [2]; [4],< 10 nM
same,IC50,IL-6,< 1 nM
CN(C[C@H]1CC[C@H](n2cc(NC(=O)c3cnn4ccc(N5C[C@H]6C[C@@H]5CO6)nc34)c(C(F)F)n2)CC1)C1CCN(Cc2cccc3c2n(C)c(=O)n3C2CCC(=O)NC2=O)CC1 (stereo partly drawn) [I-465],DC50,IRAK4 [1]; [3],< 10 nM
same,DC50,IRAK4 [2]; [4],< 10 nM
same,IC50,IL-6,< 1 nM
Cn1c(=O)n(C2CCC(=O)NC2=O)c2cccc(C[C@H]3CC[C@H](N(C)C[C@H]4CC[C@H](n5cc(NC(=O)c6cnn7ccc(N8C[C@H]9C[C@@H]8CO9)nc67)c(C(F)F)n5)CC4)CC3)c21 (stereo partly drawn) [I-508],DC50,IRAK4 [2]; [4],< 10 nM
same,IC50,OCI-LY10,> 1000 nM
same,IC50,IL-6,1 to 10 nM
